Earlier results, collected in US20040029892A1, “Compositions and dosage forms for application in the oral cavity in the treatment of mykoses” (priority 2003, published 2004).

Conditions: almost insoluble

solubility in water: less than 1 μg/ml
SMILES: CCC(C)n1ncn(-c2ccc(N3CCN(c4ccc(OCC5COC(Cn6cncn6)(c6ccc(Cl)cc6Cl)O5)cc4)CC3)cc2)c1=O (racemic) [itraconazole, (±)-cis-4-[4-[4-[4-[[2-(2,4-dichlorophenyl)-2(1H-1,2,4-triazol-1-yl-methyl)-1,3-dioxolan-4-yl]methoxy]phenyl]-1piperazinyl]phenyl]-2,4-dihydro-2-(1-methylpropyl)-3H-1,2,4-triazol-3-one]
